Measured values published in BindingDB's records for doi:10.1016/j.bmcl.2011.09.060 (Second Military Medical University, 2011).

Molecular target: Acrosin (Homo sapiens, UniProt P10323)
Test: Inhibition of acrosin activity in human spermatozoa using N-alpha-benzoyl-DL-arginine para-nitroanilide-HCI as a substrate after 3 hrs by spectrophotometric analysis

Sequence of Acrosin (P10323 20-42 limits assumed): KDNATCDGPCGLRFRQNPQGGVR
Sequence of Acrosin (P10323 43-343 limits assumed): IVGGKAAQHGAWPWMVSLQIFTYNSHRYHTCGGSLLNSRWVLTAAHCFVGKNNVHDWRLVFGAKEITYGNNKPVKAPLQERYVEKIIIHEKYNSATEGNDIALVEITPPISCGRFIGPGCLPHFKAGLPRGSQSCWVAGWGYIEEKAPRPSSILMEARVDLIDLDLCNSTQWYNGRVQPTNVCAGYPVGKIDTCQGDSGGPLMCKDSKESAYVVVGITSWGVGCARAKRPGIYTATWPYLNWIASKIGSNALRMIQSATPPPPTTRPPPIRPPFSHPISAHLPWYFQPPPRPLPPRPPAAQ

IC50 [mM] | Compound
4.2 | N=C(N)NS(=O)(=O)c1ccc(NC(=O)COc2ccc([N+](=O)[O-])cc2)cc1
5.63 | N=C(N)NS(=O)(=O)c1ccc(NC(=O)c2ccc(Cl)cc2Cl)cc1
3.84 | N=C(N)NS(=O)(=O)c1ccc(NC(=O)c2ccc(CCl)cc2)cc1
2.21 | COc1ccc(C(=O)Nc2ccc(S(=O)(=O)NC(=N)N)cc2)cc1
2.5 | NC(N)=NS(=O)(=O)c1ccc(NC(=O)c2cc([N+](=O)[O-])cc([N+](=O)[O-])c2)cc1
1.58 | CCCCC(=O)Nc1ccc(S(=O)(=O)NC(=N)N)cc1
2.45 | Cc1cc(C)c(C(=O)Nc2ccc(S(=O)(=O)NC(=N)N)cc2)c(C)c1
0.027 | COC(=O)c1ccc(OC(=O)c2ccc(NC(=N)N)cc2)cc1
7.18 | N=C(N)NS(=O)(=O)c1ccc(NC(=O)c2c(F)cccc2F)cc1
7.63 | N=C(N)NS(=O)(=O)c1ccc(NC(=O)c2ccccc2Br)cc1
8.98 | Cc1ccc(OCC(=O)Nc2ccc(S(=O)(=O)N=C(N)N)cc2)cc1
7 | N=C(N)NS(=O)(=O)c1ccc(NC(=O)c2cccc(Cl)c2)cc1
8.92 | Cc1cccc(OCC(=O)Nc2ccc(S(=O)(=O)N=C(N)N)cc2)c1
9.35 | N=C(N)NS(=O)(=O)c1ccc(NC(=O)COc2ccc(Cl)cc2)cc1
2.3 | N=C(N)NS(=O)(=O)c1ccc(NC(=O)COc2ccccc2)cc1
0.13 | CCOc1ccc(C(=O)Nc2ccc(S(=O)(=O)NC(=N)N)cc2)cc1
9.58 | CCCC(=O)Nc1ccc(S(=O)(=O)NC(=N)N)cc1
2.06 | Cc1ccc(C(=O)Nc2ccc(S(=O)(=O)NC(=N)N)cc2)cc1

IC50 [mM] | Compound
3.31 | CCCOC(=O)C1CCN(CC(=O)Nc2ccc(S(=O)(=O)N=C(N)N)cc2)CC1
9.5 | CCCCOC(=O)C1CCN(CC(=O)Nc2ccc(S(=O)(=O)NC(=N)N)cc2)CC1
7.41 | NC(N)=NS(=O)(=O)c1ccc(NC(=O)CN2CCCCC2)cc1
7.05 | N=C(N)NS(=O)(=O)c1ccc(NC(=O)c2cccc(C(F)(F)F)c2)cc1
9.3 | Cc1ccccc1OCC(=O)Nc1ccc(S(=O)(=O)NC(=N)N)cc1
2.51 | CC(C)CCOC(=O)C1CCN(CC(=O)Nc2ccc(S(=O)(=O)NC(=N)N)cc2)CC1
2.99 | CCOC(=O)C1CCN(CC(=O)Nc2ccc(S(=O)(=O)N=C(N)N)cc2)CC1
5.96 | NC(N)=NS(=O)(=O)c1ccc(NC(=O)c2c(Cl)cccc2Cl)cc1
9 | CCC(=O)Nc1ccc(S(=O)(=O)N=C(N)N)cc1
9.3 | COC(=O)C1CCN(CC(=O)Nc2ccc(S(=O)(=O)NC(=N)N)cc2)CC1
2.35 | CC(C)OC(=O)C1CCN(CC(=O)Nc2ccc(S(=O)(=O)NC(=N)N)cc2)CC1
3.8 | NC(N)=NS(=O)(=O)c1ccc(NC(=O)c2ccc(Cl)c(Cl)c2)cc1
6.3 | N=C(N)NS(=O)(=O)c1ccc(NC(=O)c2ccccc2Cl)cc1
9.84 | COc1ccc(OCC(=O)Nc2ccc(S(=O)(=O)N=C(N)N)cc2)cc1
7.11 | N=C(N)NS(=O)(=O)c1ccc(NC(=O)c2ccc(F)cc2)cc1
9.9 | CC1CCCCN1CC(=O)Nc1ccc(S(=O)(=O)N=C(N)N)cc1 (stereo unspecified)
0.21 | CCc1ccc(C(=O)Nc2ccc(S(=O)(=O)N=C(N)N)cc2)cc1
4.98 | CC1CCN(CC(=O)Nc2ccc(S(=O)(=O)NC(=N)N)cc2)CC1
